Reference: ChEMBL document CHEMBL3885861, “Open TG-GATES”

Species: Rattus norvegicus
Test: Open TG-GATES - Regimen: Daily Repeat
Type: toxicity, organism-based, Sprague-Dawley
Design: regimen Daily Repeat, gender Male, age 6 weeks
Settings: in vivo, po, route gavage; for TG / TP / gamma-GTP / ALP / ALT / CRE / DBIL / GLC / IP / K / LDH / Na / PL / RALB / TBIL / TC / BUN: tissue Plasma
[1] = 60 mg/kg, […], dose level Low, time 28 day
[2] = 200 mg/kg, 72 h, dose level Middle, time 3 day
[3] = 200 mg/kg, 72 h, tissue Blood, dose level Middle, time 3 day
[4] = 200 mg/kg, […], dose level Middle, time 7 day
[5] = 200 mg/kg, […], dose level Middle, time 14 day
[6] = 200 mg/kg, […], dose level Middle, time 28 day
[7] = 200 mg/kg, […], tissue Blood, dose level Middle, time 7 day
[8] = 200 mg/kg, […], tissue Blood, dose level Middle, time 14 day
[9] = 200 mg/kg, […], tissue Blood, dose level Middle, time 28 day
[10] = 600 mg/kg, 72 h, dose level High, time 3 day
[11] = 600 mg/kg, 72 h, tissue Blood, dose level High, time 3 day
[12] = 600 mg/kg, […], dose level High, time 7 day
[13] = 600 mg/kg, […], dose level High, time 14 day
[14] = 600 mg/kg, […], dose level High, time 28 day
[15] = 600 mg/kg, […], tissue Blood, dose level High, time 7 day
[16] = 600 mg/kg, […], tissue Blood, dose level High, time 14 day
[17] = 600 mg/kg, […], tissue Blood, dose level High, time 28 day

CCN(CC)C(=S)SSC(=S)N(CC)CC
TG [1]: 67.8 mg/dL | TP [1]: 5.9 g/dL | gamma-GTP [1]: 1.8 IU/L | TERMINAL_BW [2]: 218.6 g | APTT [3]: 22.4 s | Bas [3]: 0% | Eos [3]: 1% | Fbg [3]: 344.8 mg/dL | Hb [3]: 12.4 g/dL | Ht [3]: 37.6% | MCH [3]: 19.7 pg | MCHC [3]: 32.9% | MCV [3]: 60 fL | Mono [3]: 2.2% | PT [3]: 15.7 s | Plat [3]: 109.9 x10_4/uL | RBC [3]: 627.2 x10_4/ul | Ret [3]: 4.6% | WBC [3]: 80.4 x10_2/uL | ALP [2]: 878 IU/L | ALT [2]: 45 IU/L | CRE [2]: 0.2 mg/dL | DBIL [2]: 0.008 mg/dL | GLC [2]: 170.6 mg/dL | IP [2]: 7 mg/dL | K [2]: 4.1 meq/L | LDH [2]: 195.4 IU/L | Na [2]: 144 meq/L | PL [2]: 189.4 mg/dL | RALB [2]: 3.1 g/dL | TBIL [2]: 0.014 mg/dL | TC [2]: 117.8 mg/dL | TG [2]: 54.8 mg/dL | TP [2]: 5.6 g/dL | gamma-GTP [2]: 1.2 IU/L | TERMINAL_BW [4]: 250.3 g | TERMINAL_BW [5]: 290.7 g | TERMINAL_BW [6]: 357.8 g | APTT [7]: 20.7 s | Bas [7]: 0% | Eos [7]: 1% | Fbg [7]: 349.8 mg/dL | Hb [7]: 12.3 g/dL | Ht [7]: 37.8% | MCH [7]: 20.2 pg | MCHC [7]: 32.7% | MCV [7]: 61.8 fL | Mono [7]: 2.4% | PT [7]: 16.3 s | Plat [7]: 130.6 x10_4/uL | RBC [7]: 611 x10_4/ul | Ret [7]: 7.1% | WBC [7]: 101.3 x10_2/uL | APTT [8]: 23.3 s | Bas [8]: 0% | Eos [8]: 1% | Fbg [8]: 348.6 mg/dL | Hb [8]: 13.6 g/dL | Ht [8]: 39.4% | MCH [8]: 20 pg | MCHC [8]: 34.5% | MCV [8]: 58 fL | Mono [8]: 2.4% | PT [8]: 16.1 s | RBC [8]: 679.6 x10_4/ul | Ret [8]: 5.2% | WBC [8]: 99.9 x10_2/uL | APTT [9]: 24.5 s | Bas [9]: 0% | Eos [9]: 1.4% | Fbg [9]: 385.6 mg/dL | Hb [9]: 14.2 g/dL | Ht [9]: 40.9% | MCH [9]: 19 pg | MCHC [9]: 34.8% | MCV [9]: 54.7 fL | Mono [9]: 2% | Neu [9]: 16% | PT [9]: 16.3 s | Plat [9]: 100.5 x10_4/uL | RBC [9]: 748.8 x10_4/ul | Ret [9]: 4% | WBC [9]: 118.2 x10_2/uL | ALP [4]: 989.4 IU/L | ALT [4]: 46 IU/L | BUN [4]: 18.2 mg/dL | CRE [4]: 0.2 mg/dL | DBIL [4]: 0 mg/dL | GLC [4]: 173.2 mg/dL | IP [4]: 6.6 mg/dL | K [4]: 4.3 meq/L | LDH [4]: 195 IU/L | Na [4]: 143 meq/L | PL [4]: 171 mg/dL | RALB [4]: 3.1 g/dL | TBIL [4]: 0.006 mg/dL | TG [4]: 38.2 mg/dL | TP [4]: 5.8 g/dL | gamma-GTP [4]: 1.6 IU/L | ALP [5]: 989.6 IU/L | ALT [5]: 38.8 IU/L | BUN [5]: 22.2 mg/dL | CRE [5]: 0.2 mg/dL | DBIL [5]: 0 mg/dL | GLC [5]: 172.6 mg/dL | IP [5]: 6.4 mg/dL | K [5]: 4.2 meq/L | LDH [5]: 126.6 IU/L | Na [5]: 142 meq/L | PL [5]: 181 mg/dL | RALB [5]: 3.2 g/dL | TBIL [5]: 0.014 mg/dL | TC [5]: 104 mg/dL | TG [5]: 41.2 mg/dL | TP [5]: 6 g/dL | gamma-GTP [5]: 3 IU/L | ALP [6]: 809.6 IU/L | ALT [6]: 37.2 IU/L | BUN [6]: 21.2 mg/dL | CRE [6]: 0.2 mg/dL | DBIL [6]: 0 mg/dL | GLC [6]: 165.8 mg/dL | IP [6]: 6 mg/dL | K [6]: 4 meq/L | LDH [6]: 132 IU/L | Na [6]: 142 meq/L | PL [6]: 188 mg/dL | RALB [6]: 3.3 g/dL | TBIL [6]: 0.026 mg/dL | TC [6]: 118 mg/dL | TG [6]: 38 mg/dL | TP [6]: 6.4 g/dL | gamma-GTP [6]: 2.4 IU/L | TERMINAL_BW [10]: 211.3 g | APTT [11]: 23.3 s | Bas [11]: 0% | Eos [11]: 0.6% | Fbg [11]: 405.6 mg/dL | Hb [11]: 12.6 g/dL | Ht [11]: 37.8% | MCH [11]: 20.2 pg | MCHC [11]: 33.3% | MCV [11]: 60.9 fL | Mono [11]: 2.4% | PT [11]: 15.5 s | Plat [11]: 118.3 x10_4/uL | RBC [11]: 623 x10_4/ul | Ret [11]: 4.4% | WBC [11]: 61.8 x10_2/uL | ALP [10]: 963 IU/L | ALT [10]: 47.6 IU/L | CRE [10]: 0.1 mg/dL | DBIL [10]: 0.02 mg/dL | GLC [10]: 162 mg/dL | IP [10]: 7.7 mg/dL | K [10]: 3.7 meq/L | LDH [10]: 341.6 IU/L | Na [10]: 144 meq/L | PL [10]: 212.8 mg/dL | RALB [10]: 3 g/dL | TBIL [10]: 0.018 mg/dL | TC [10]: 147.4 mg/dL | TG [10]: 29.4 mg/dL | TP [10]: 5.8 g/dL | gamma-GTP [10]: 1.4 IU/L | TERMINAL_BW [12]: 217.6 g | TERMINAL_BW [13]: 270 g | TERMINAL_BW [14]: 304.2 g | APTT [15]: 25.8 s | Bas [15]: 0% | Eos [15]: 0.5% | Fbg [15]: 408.2 mg/dL | Hb [15]: 13.4 g/dL | Ht [15]: 40% | Lym [15]: 64.8% | MCH [15]: 19.7 pg | MCHC [15]: 33.5% | MCV [15]: 58.8 fL | Mono [15]: 5% | Neu [15]: 28.8% | PT [15]: 18.8 s | Plat [15]: 130.8 x10_4/uL | RBC [15]: 681.5 x10_4/ul | Ret [15]: 4.8% | WBC [15]: 88.4 x10_2/uL | APTT [16]: 22.8 s | Bas [16]: 0% | Eos [16]: 1% | Fbg [16]: 377.4 mg/dL | Hb [16]: 13.4 g/dL | Ht [16]: 38.3% | MCH [16]: 19.6 pg | MCHC [16]: 35% | MCV [16]: 55.9 fL | Mono [16]: 2.4% | Neu [16]: 22.6% | PT [16]: 16.8 s | RBC [16]: 683.8 x10_4/ul | Ret [16]: 5.7% | WBC [16]: 85.1 x10_2/uL | APTT [17]: 20.8 s | Bas [17]: 0% | Eos [17]: 1% | Fbg [17]: 382.2 mg/dL | Hb [17]: 13.4 g/dL | Ht [17]: 38.9% | MCH [17]: 18.9 pg | MCHC [17]: 34.5% | MCV [17]: 54.9 fL | Mono [17]: 2.6% | Neu [17]: 17.8% | PT [17]: 17.4 s | Plat [17]: 99.3 x10_4/uL | RBC [17]: 708.2 x10_4/ul | Ret [17]: 4.8% | WBC [17]: 98.6 x10_2/uL | ALP [12]: 563.5 IU/L | ALT [12]: 41.8 IU/L | BUN [12]: 17.5 mg/dL | CRE [12]: 0.2 mg/dL | DBIL [12]: 0.0275 mg/dL | GLC [12]: 147.5 mg/dL | IP [12]: 7.2 mg/dL | K [12]: 4.3 meq/L | LDH [12]: 354.2 IU/L | Na [12]: 145.2 meq/L | PL [12]: 201 mg/dL | RALB [12]: 2.9 g/dL | TBIL [12]: 0.025 mg/dL | TG [12]: 16.5 mg/dL | TP [12]: 5.8 g/dL | gamma-GTP [12]: 2.5 IU/L | ALP [13]: 1017.2 IU/L | ALT [13]: 34 IU/L | BUN [13]: 21 mg/dL | CRE [13]: 0.2 mg/dL | DBIL [13]: 0.004 mg/dL | GLC [13]: 161.2 mg/dL | IP [13]: 6.9 mg/dL | K [13]: 4.1 meq/L | LDH [13]: 173.8 IU/L | Na [13]: 142.8 meq/L | PL [13]: 178.8 mg/dL | RALB [13]: 3.3 g/dL | TBIL [13]: 0.024 mg/dL | TC [13]: 109.4 mg/dL | TG [13]: 29.2 mg/dL | TP [13]: 6.2 g/dL | gamma-GTP [13]: 2.8 IU/L | ALP [14]: 651.8 IU/L | ALT [14]: 34.2 IU/L | BUN [14]: 19.6 mg/dL | CRE [14]: 0.2 mg/dL | DBIL [14]: 0.014 mg/dL | GLC [14]: 156.8 mg/dL | IP [14]: 6.1 mg/dL | K [14]: 3.8 meq/L | LDH [14]: 159.2 IU/L | Na [14]: 143 meq/L | PL [14]: 166.6 mg/dL | RALB [14]: 3.2 g/dL | TBIL [14]: 0.044 mg/dL | TC [14]: 112.4 mg/dL | TG [14]: 16.2 mg/dL | TP [14]: 6.4 g/dL | gamma-GTP [14]: 2.8 IU/L
